From patent publication US6113896A, “Pharmaceutical compositions containing ecotin and homologs thereof” (priority 1994, dated 2000)

Key:
Format in all cases: biochemical, human
thrombin = assay: Specificity assay, thrombin; conditions: for Percent Activity of Thrombin: 100 nM inhibitor, ~1 h, 3.7 nM enzyme
Protocol: (§1) Specificity Assays The following assays were used to test the specificity of ecotin and the M84K and M84R mutants against various proteases. Ecotin, M84K, M84R (100 nM each), or a control blank were incubated at room temperature for ~1 h with each enzyme. The enzymes tested (enzyme concentration, buffer, substrate) were FXa (1.2 nM, Buffer A, 0.7 mM Spectrozyme fXa), thrombin (3.7 nM, Buffer A, 0.7 mM S2366), TF.cndot.FVIIa (12.0 nM, Buffer B, 0.7 mM S2366), FXIa (1.2 nM, Buffer A containing 1 mg/ml BSA, 0.7 mM S2366), activated protein C (4.3 nM, Buffer A, 0.7 mM S2366), plasmin (15 nM, Buffer A, 1 mM S2251), single chain t-PA (15 nM, Buffer A, 2.5 mM S2288), Factor XIIa (10 nM, Buffer A, 0.5 mM S2302, plasma kallikrein (10 nM, Buffer A, 0.5 mM S2302), HLE (17 nM, 0.1 M Tris, pH 7.5, 0.5 M NaCl and 0.005 % Triton X-100, 0.42 mM MeOSuc-AAPV-pNA) (SEQ ID NO:9), bovine trypsin (10 nM, Buffer A, 0.25 mM Spectrozyme fXa), and bovine chymotrypsin (10 nM, Buffer A, 1 mM Suc-AAPF-pNA) (SEQ ID NO:10). Buffer A contains 50 mM Tris, pH 7.5, 100 mM NaCl, 2 mM CaCl2 and 0.005% Triton X-100. Buffer B contains 50 mM Tris, pH 7.5, 100 mM NaCl, 10 mM CaCl2, 0.5% BSA, 60 nM TF1-243,and 1 mM CHAPS. The initial change in absorbance at 405 nm was monitored after addition of substrate. Controls lacking inhibitor and/or enzyme were also assayed to assess the uninhibited rates and the background substrate hydrolysis rates, respectively.

plasma kallikrein = assay: Specificity assay, plasma kallikrein; conditions: for Percent Activity of Kallikrein: 100 nM inhibitor, ~1 h, 10 nM enzyme
Protocol: as §1

FXa [1] = assay: Ecotin·FXa dissociation rate constant (HLE trap); conditions: for koff (values in parenthesis): calculated from (Ki)·(kon); for koff: measured in presence of excess HLE to trap free ecotin
Protocol: Determination of FXa dissociation rate constant The dissociation rate constant of the ecotin.cndot.FXa complex was measured using HLE to trap the free ecotin released from the complex. FXa (10 μM) was incubated for 1 h in TNCT buffer in the presence and absence of ecotin (12.5 μM) and diluted 1000-fold into TNCT buffer with and without HLE (500 nM). Aliquots (180 μl ) were removed at various times and initial rates of free FXa were measured at 405 nm with 20 μl of 5 mM Spectrozyme fXa. The product curve (free FXa versus time) was fit to equation 6; the value for koff was determined by nonlinear regression analysis.
To measure the dissociation rate constant of ecotin from FXa, the complex was diluted 1000-fold into buffer containing a 50-fold excess of HLE to trap the free ecotin and prevent reassociation. In the absence of HLE, reassociation of ecotin with FXa was so rapid that free FXa was barely detectible (FIG. 4B). Progress of dissociation was monitored as the increase in hydrolysis rate of Spectrozyme fXa resulting from the increasing free FXa with time. Because HLE prevented reassociation the rate of dissociation of the E·I complex is given by equation (5): [formula] which upon integration gives equation (6): […]
where [E] is the free [FXa] at any time t, [E.cndot.I]0 is the concentration of the complex at time zero, and koff is the first order dissociation rate constant. The time dependent E·I complex dissociation curve fit to equation (6) by nonlinear regression analysis is shown in FIG. 4B; the dissociation rate constant for ecotin tested is shown above in Table I.

activated protein C = assay: Specificity assay, activated protein C; conditions: for Percent Activity of Activated protein C: 100 nM inhibitor, ~1 h, 4.3 nM enzyme
Protocol: as §1

FXIa = assay: Specificity assay, FXIa; conditions: for Percent Activity of Factor XIa: 100 nM inhibitor, ~1 h, 1.2 nM enzyme
Protocol: as §1

FXa [2] = assay: Specificity assay, FXa; conditions: 100 nM inhibitor, ~1 h, 1.2 nM enzyme
Protocol: as §1

[3] = text statement, listed as ecotin

Ecotin: E. coli periplasmic protein having the 142 amino acid residue sequence reported by McGrath et al.; recombinant, P1 Met84
Percent Activity of Thrombin (thrombin): 98%
inhibition of thrombin, in words (thrombin; text statement): did not effectively inhibit
inhibition of thrombin, in words (thrombin; [3]): little or no inhibition
Percent Activity of Kallikrein (plasma kallikrein): 0%
inhibition of plasma kallikrein, in words (plasma kallikrein; text statement): potently inhibited
half-life of ecotin·FXa complex in vitro (FXa [1]): ca. 3 h
koff (values in parenthesis) (FXa [1]): 2.2e-05 s⁻¹
koff (FXa [1]): 6.5e-05 s⁻¹
koff (FXa [1]; listed as Wild type): 6.5e-05 s⁻¹
koff (FXa [1]; listed as ecotin): 6.5e-05 s⁻¹
Percent Activity of Activated protein C (activated protein C): 99%
inhibition of activated protein C, in words (activated protein C; text statement): did not effectively inhibit
inhibition of activated protein C, in words (activated protein C; [3]): little or no inhibition
Percent Activity of Factor XIa (FXIa): 79%
inhibition of FXIa, in words (FXIa; text statement): did not effectively inhibit
inhibition of FXIa, in words (FXIa; [3]): little or no inhibition
Percent Activity of Factor Xa (FXa [2]): 0%

M84K
Percent Activity of Thrombin (thrombin): 16%
inhibition of thrombin, in words (thrombin; listed as P1 Lys mutant): significantly inhibited
inhibition of thrombin, in words (thrombin; text statement): significant inhibition
Percent Activity of Kallikrein (plasma kallikrein): 2%
inhibition of plasma kallikrein, in words (plasma kallikrein; listed as P1 Lys mutant): significantly inhibited
inhibition of plasma kallikrein, in words (plasma kallikrein; text statement): still potently inhibited
koff (values in parenthesis) (FXa [1]): 4.5e-06 s⁻¹
Percent Activity of Activated protein C (activated protein C): 65%
inhibition of activated protein C, in words (activated protein C; listed as P1 Lys mutant): significantly inhibited
inhibition of activated protein C, in words (activated protein C; text statement): significant inhibition
Percent Activity of Factor XIa (FXIa): 12%
inhibition of FXIa, in words (FXIa; listed as P1 Lys mutant): significantly inhibited
inhibition of FXIa, in words (FXIa; text statement): significant inhibition
Percent Activity of Factor Xa (FXa [2]): 2%

M84R
Percent Activity of Thrombin (thrombin): 4%
inhibition of thrombin, in words (thrombin; listed as P1 Arg mutant): significantly inhibited
inhibition of thrombin, in words (thrombin; text statement): significant inhibition
Percent Activity of Kallikrein (plasma kallikrein): 1%
inhibition of plasma kallikrein, in words (plasma kallikrein; listed as P1 Arg mutant): significantly inhibited
inhibition of plasma kallikrein, in words (plasma kallikrein; text statement): still potently inhibited
koff (values in parenthesis) (FXa [1]): 1e-06 s⁻¹
Percent Activity of Activated protein C (activated protein C): 50%
inhibition of activated protein C, in words (activated protein C; listed as P1 Arg mutant): significantly inhibited
inhibition of activated protein C, in words (activated protein C; text statement): significant inhibition
Percent Activity of Factor XIa (FXIa): 5%
inhibition of FXIa, in words (FXIa; listed as P1 Arg mutant): significantly inhibited
inhibition of FXIa, in words (FXIa; text statement): significant inhibition
Percent Activity of Factor Xa (FXa [2]): 1%
